The values that follow come from ChEMBL document CHEMBL1201862, “PubChem BioAssay data set” (2004).

Common to all, as to experiment: NCI anticancer screen, dose series, 48 h
Assay [1] has as its system Malme-3M.
For assay [2], the system named is SF-539.
Assay [3] concerns SR.
Assay [4] relates to CCRF-CEM.
The test system of assay [5] is SNB-78.
Assay [6] deals with RXF 393.
The test system of assay [7] is DMS-114.
Assay [8] concerns DLD-1.
For assay [9], the system named is A498.
The subject of assay [10] is NCI-H460.
The subject of assay [11] is 786-0.
For assay [12], the system named is MOLT-4.
Assay [13] relates to UACC-62.
Assay [14] deals with K562.
Assay [15] deals with COLO 205.
Assay [16] has as its system CAKI-1.
The test system of assay [17] is EKVX.
The subject of assay [18] is NCI/ADR-RES.
Assay [19] has as its system DU-145.
The test system of assay [20] is MDA-N.

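Assay format: 96-well plates, 48-hour exposure. GI50 marks 50% less growth.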 Activity calls are given as the source filed them. No stated cut-off is given here; in the data, active = GI50 up to about 1.1 µM and inactive = higher.

With `COc1ccc(OC(C)=O)c2c1CCC=CC2=O`, the GI50 in [1] is 20.1 µM (inactive); in assay [2], 16.9 µM (inactive); in [3], 15.1 µM (inactive); in assay [4] it was 3.44 µM (inactive); in [5], 38.5 µM (inactive); in assay [6] it was 9.16 µM (inactive). Moreover, the GI50 in assay [7] is 19.1 µM (inactive); in assay [8], > 10 µM (inactive); in [9], 21.5 µM (inactive); in [10] it was 19.1 µM (inactive); in [11] it was 17.9 µM (inactive); in [12] it was 12.2 µM (inactive). In addition, the GI50 in [13] is 13.4 µM (inactive); in assay [14], 3.76 µM (inactive); in assay [15], 9.2 µM (inactive).
With `CC(O)C(NC(=O)C(CS)NC(=O)C(CO)NC(=O)C(CCCCN)NC(=O)C(Cc1c[nH]c2ccccc12)NC(=O)C(Cc1ccc(O)cc1)NC(=O)C(CS)NC(=O)C(N)Cc1ccccc1)C(N)=O` (configuration not stated), the GI50 is > 25 µM (inactive) in assay [1]; > 25 µM (inactive) in assay [2]; > 25 µM (inactive) in assay [3]; > 25 µM (inactive) in [4]; 31.3 µM (inactive) in assay [5]; > 25 µM (inactive) in assay [6]. In addition, the GI50 was > 25 µM (inactive) in assay [16]; > 25 µM (inactive) in [17]; 35.8 µM (inactive) in assay [7]; > 25 µM (inactive) in assay [18]; 22.1 µM (inactive) in assay [8]; > 25 µM (inactive) in [9]. Besides, the GI50 in [19] is > 25 µM (inactive); in assay [10], 22.2 µM (inactive); in assay [11], > 25 µM (inactive); in [12], > 25 µM (inactive); in assay [13], > 25 µM (inactive); in [14] it was > 25 µM (inactive). In addition, the GI50 in assay [20] and in assay [15] was > 25 µM (inactive) in each case.
As for `CCc1cccc(C(C)C)c1NC(=O)C(=O)C(CC(=O)Nc1ccc(Cl)c(Cl)c1)C(=O)OC` (configuration not stated), the GI50 in [1], in assay [2], in [3], in assay [4], in [5] and in assay [6] was > 100 µM (inactive) in each case. For the same molecule, the GI50 in assay [16] is > 100 µM (inactive); in assay [17] it was > 100 µM (inactive); in [7], > 100 µM (inactive); in [8] it was 31 µM (inactive); in assay [9] it was > 100 µM (inactive); in [10], 85.7 µM (inactive). Further, the GI50 was > 100 µM (inactive) in assay [11]; > 100 µM (inactive) in assay [12]; 2.18 µM (inactive) in assay [13]; 10.9 µM (inactive) in assay [14]; 77.3 µM (inactive) in assay [15].
For the molecule `N=C(N)N/N=C(/CC1OC(=O)c2ccccc21)c1ccc2ccccc2c1` (configuration not stated), the GI50 in assay [1] is 14.5 µM (inactive); in [2], 13.2 µM (inactive); in assay [3], 14.2 µM (inactive); in [4], 15.1 µM (inactive); in assay [5], > 100 µM (inactive); in [16] it was > 100 µM (inactive). In addition, the GI50 in assay [17] is 23.1 µM (inactive); in [7] it was 12.9 µM (inactive); in [8], 14 µM (inactive); in assay [9] it was 16 µM (inactive); in [10], 16.4 µM (inactive); in assay [11] it was 17.1 µM (inactive). Besides, the GI50 in assay [12] was 23.6 µM (inactive); in assay [13], 17.9 µM (inactive); in [14], 24.3 µM (inactive); in [15] it was 19.6 µM (inactive).
With `CCc1cccc(C(C)C)c1NC(=O)CC1Sc2ccccc2NC1=O` (configuration not stated), the GI50 in [1] is 83.6 µM (inactive); in [2], > 100 µM (inactive); in assay [3], 30.1 µM (inactive); in assay [4], 47.5 µM (inactive); in assay [5] it was > 100 µM (inactive); in assay [6], 41 µM (inactive). Besides, the GI50 is 0.241 µM (active) in assay [16]; 80.5 µM (inactive) in assay [17]; 44.1 µM (inactive) in [7]; 47.4 µM (inactive) in assay [8]; 46.8 µM (inactive) in assay [9]; 71.4 µM (inactive) in [10]. Besides, the GI50 is 80 µM (inactive) in assay [11], 32.4 µM (inactive) in assay [12], 44.6 µM (inactive) in assay [14] and 50.4 µM (inactive) in assay [15].
For `COC1(OC)CC2C=C(S(=O)(=O)c3ccccc3)C1N(Cc1ccccc1)C2=O` (configuration not stated), the GI50 was 24.9 µM (inactive) in [1]; 21 µM (inactive) in assay [2]; 28.9 µM (inactive) in assay [3]; 16.2 µM (inactive) in [4]; 21.2 µM (inactive) in assay [5]; 17.9 µM (inactive) in [6]. In addition, the GI50 is 91.4 µM (inactive) in [17]; 20.3 µM (inactive) in assay [7]; 24.3 µM (inactive) in assay [8]; 22.4 µM (inactive) in [9]; 29.3 µM (inactive) in assay [10]; 39.4 µM (inactive) in assay [11]. Moreover, the GI50 was 23.2 µM (inactive) in assay [12], 20.2 µM (inactive) in [13], 35 µM (inactive) in [14] and 19.9 µM (inactive) in assay [15].
`O=C1C=CC2(C=C1)C[C@H](NC(=O)C(F)(F)F)C(=O)O2`: the GI50 in assay [1] is 19.8 µM (inactive); in [2], 34.7 µM (inactive); in assay [3], 37 µM (inactive); in assay [4] it was 16.4 µM (inactive); in [5] it was > 100 µM (inactive); in [6], 27.5 µM (inactive). Moreover, the GI50 in assay [16] is 30.5 µM (inactive); in assay [17], 18.2 µM (inactive); in assay [7], 64.6 µM (inactive); in assay [8] it was 22.9 µM (inactive); in assay [9] it was > 100 µM (inactive); in assay [10], > 100 µM (inactive). The GI50 in assay [11] is > 100 µM (inactive); in [12] it was 20.4 µM (inactive); in [13], 18.1 µM (inactive); in [14], 20.4 µM (inactive); in assay [15], 29.6 µM (inactive).
For `COc1ccc(/C=c2\sc3nnc(CCC(=O)Nc4cccc(C(F)(F)F)c4)n3c2=O)cc1`, the GI50 in [1] is > 100 µM (inactive); in assay [2], > 100 µM (inactive); in assay [3] it was 42.6 µM (inactive); in assay [4], 37.2 µM (inactive); in assay [5], > 100 µM (inactive); in [6], 41.5 µM (inactive). The GI50 was > 79.8 µM (inactive) in [16]; > 100 µM (inactive) in assay [17]; > 100 µM (inactive) in assay [7]; > 100 µM (inactive) in assay [8]; > 100 µM (inactive) in [9]; > 100 µM (inactive) in [10]. For the same molecule, the GI50 in assay [11] was > 71.8 µM (inactive); in assay [12], 4.56 µM (inactive); in assay [13], > 62.8 µM (inactive); in assay [14], > 100 µM (inactive); in assay [15], > 100 µM (inactive).
For the molecule `N#CC(/C(=N/NC(=O)C(=O)NN)C(=O)NC12CC3CC(CC(C3)C1)C2)c1ccccc1` (configuration not stated), the GI50 in assay [1], in assay [2], in assay [3], in [4], in assay [5] and in [6] was > 100 µM (inactive) in each case. Further, the GI50 in assay [16], in assay [17], in assay [7], in [8], in assay [9] and in assay [10] was > 100 µM (inactive) throughout. In addition, the GI50 in assay [11], in [12], in assay [13], in assay [14] and in assay [15] was > 100 µM (inactive) throughout.
Take `COc1cc(-c2cc(=O)c3c(O)c(OC)c(OC)c(OC)c3o2)ccc1O`: the GI50 in assay [1] is 28.7 µM (inactive); in assay [2], 11.8 µM (inactive); in assay [3], 23 µM (inactive); in assay [4] it was 22.4 µM (inactive); in [5], 27.7 µM (inactive); in assay [6], 13 µM (inactive). Also, the GI50 in assay [17] was > 100 µM (inactive); in assay [7] it was 23.9 µM (inactive); in [8], 23.9 µM (inactive); in assay [9], 2.61 µM (inactive); in [10], 16.2 µM (inactive); in assay [11], 29.8 µM (inactive). The GI50 in [12] was 23.1 µM (inactive); in assay [13] it was 14.8 µM (inactive); in assay [14], 17.8 µM (inactive); in assay [15], > 10 µM (inactive).
